# Test results reported in US9365584B2, “Thieno [2,3-B] pyridinedione activators of AMPK and therapeutic uses thereof” (Poxel, priority 2009, dated 2016).
# System: AMPK
# Assay: AMPK enzyme activity assay (Delfia technology, AMARA peptide substrate)
# Type: biochemical
# Settings: compound at 30 μM vs AMP at 200 μM
# In short: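 Value is the ratio of compound (30 μM) to AMP (200 μM) response, each as % of basal control. Phosphorylation of the AMARA peptide after AMPK addition was read by Delfia with an anti-phosphoserine antibody.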
row,SMILES,Activity: Ratio between the % of control (basal activity) of compound of formula (1) at 30 μM and the % of control (basal activity) of AMP (natural substrate) at 200 μM
1,"Cc1cccc(C2(F)C(=O)Nc3sc(Cl)c(-c4ccc(F)cc4O)c3C2=O)c1 (stereo not shown) [No 184, 2-chloro-5-fluoro-3-(4-fluoro-2-hydroxy-phenyl)-5-(m-tolyl)-7H-thieno[2,3-b]pyridine-4,6-dione]",C (C≧75%)
2,"Cc1c(F)ccc(-c2c(Cl)sc3c2C(=O)C(F)(c2ccccc2)C(=O)N3)c1O (stereo not shown) [No 185, 2-chloro-5-fluoro-3-(4-fluoro-2-hydroxy-3-methyl-phenyl)-5-phenyl-7H-thieno[2,3-b]pyridine-4,6-dione]",C (C≧75%)
3,"Cc1cccc(C2(F)C(=O)Nc3sc(Cl)c(-c4ccc(C)c(C)c4)c3C2=O)c1 (stereo not shown) [No 186, 2-chloro-3-(3,4-dimethylphenyl)-5-fluoro-5-(m-tolyl)-7H-thieno[2,3-b]pyridine-4,6-dione]",C (C≧75%)
4,"Cc1ccc(-c2c(Cl)sc3c2C(=O)C(F)(c2cccnc2)C(=O)N3)cc1C (stereo not shown) [No 187, 2-chloro-3-(3,4-dimethylphenyl)-5-fluoro-5-(3-pyridyl)-7H-thieno[2,3-b]pyridine-4,6-dione]",C (C≧75%)
5,"O=C1Nc2scc(-c3ccc(Br)cc3)c2C(=O)C1(F)c1ccccn1 (stereo not shown) [No 188, 3-(4-bromophenyl)-5-fluoro-5-(2-pyridyl)-7H-thieno[2,3-b]pyridine-4,6-dione]",A (0%<A<50%)
6,"O=C1Nc2scc(-c3ccc(F)cc3)c2C(=O)C1(F)c1ccccc1 (stereo not shown) [No 189, 5-fluoro-3-(4-fluorophenyl)-5-phenyl-7H-thieno[2,3-b]pyridine-4,6-dione]",A (0%<A<50%)
7,"O=C1Nc2scc(-c3cccc(F)c3)c2C(=O)C1(F)c1ccccc1 (stereo not shown) [No 190, 5-fluoro-3-(3-fluorophenyl)-5-phenyl-7H-thieno[2,3-b]pyridine-4,6-dione]",B (50%≦B<75%)
8,"Cc1ccc(-c2c(Cl)sc3c2C(=O)C(F)(c2ccccc2)C(=O)N3)c(O)c1F (stereo not shown) [No 191, 2-chloro-5-fluoro-3-(3-fluoro-2-hydroxy-4-methyl-phenyl)-5-phenyl-7H-thieno[2,3-b]pyridine-4,6-dione]",C (C≧75%)
9,"Cc1ccc(-c2c(C)sc3c2C(=O)C(F)(c2ccccc2)C(=O)N3)c(O)c1F (stereo not shown) [No 192, 5-fluoro-3-(3-fluoro-2-hydroxy-4-methyl-phenyl)-2-methyl-5-phenyl-7H-thieno[2,3-b]pyridine-4,6-dione]",C (C≧75%)
10,"O=C1Nc2scc(-c3cnccn3)c2C(=O)C1(F)c1ccccc1 (stereo not shown) [No 193, 5-fluoro-5-phenyl-3-pyrazin-2-yl-7H-thieno[2,3-b]pyridine-4,6-dione]",A (0%<A<50%)
11,"O=C1Nc2scc(-c3ccc(O)c(F)c3)c2C(=O)C1(F)c1ccccc1 (stereo not shown) [No 194, 5-fluoro-3-(3-fluoro-4-hydroxy-phenyl)-5-phenyl-7H-thieno[2,3-b]pyridine-4,6-dione]",C (C≧75%)
12,"COc1ccc(-c2c(F)sc3c2C(=O)C(F)(c2ccccc2)C(=O)N3)cc1F (stereo not shown) [No 195, 2,5-difluoro-3-(3-fluoro-4-methoxy-phenyl)-5-phenyl-7H-thieno[2,3-b]pyridine-4,6-dione]",C (C≧75%)
13,"O=C(O)c1cccc(-c2csc3c2C(=O)C(F)(c2ccccc2)C(=O)N3)c1 (stereo not shown) [No 196, 3-(5-fluoro-4,6-dioxo-5-phenyl-7H-thieno[2,3-b]pyridin-3-yl)benzoic acid]",A (0%<A<50%)
14,"O=C(O)c1cccc(-c2c(F)sc3c2C(=O)C(F)(c2ccccc2)C(=O)N3)c1 (stereo not shown) [No 197, 3-(2,5-difluoro-4,6-dioxo-5-phenyl-7H-thieno[2,3-b]pyridin-3-yl)benzoic acid]",A (0%<A<50%)
15,"O=C(O)c1ccc(-c2csc3c2C(=O)C(F)(c2ccccc2)C(=O)N3)cc1 (stereo not shown) [No 198, 4-(5-fluoro-4,6-dioxo-5-phenyl-7H-thieno[2,3-b]pyridin-3-yl)benzoic acid]",A (0%<A<50%)
16,"COc1ccc(-c2csc3c2C(=O)C(F)(c2ccc(F)cc2)C(=O)N3)cc1 (stereo not shown) [No 199, 5-fluoro-5-(4-fluorophenyl)-3-(4-methoxyphenyl)-7H-thieno[2,3-b]pyridine-4,6-dione]",B (50%≦B<75%)

row,SMILES,Activity: Ratio between the % of control (basal activity) of compound of formula (1) at 30 μM and the % of control (basal activity) of AMP (natural substrate) at 200 μM
1,"COc1ccc(-c2c(F)sc3c2C(=O)C(F)(c2ccc(F)cc2)C(=O)N3)cc1 (stereo not shown) [No 200, 2,5-difluoro-5-(4-fluorophenyl)-3-(4-methoxyphenyl)-7H-thieno[2,3-b]pyridine-4,6-dione]",B (50%≦B<75%)
2,"COc1ccc(-c2csc3c2C(=O)C(F)(c2ccccc2)C(=O)N3)cc1 (stereo not shown) [No 201, 5-fluoro-3-(4-methoxyphenyl)-5-phenyl-7H-thieno[2,3-b]pyridine-4,6-dione]",B (50%≦B<75%)
3,"COc1ccc(-c2c(F)sc3c2C(=O)C(F)(c2ccccc2)C(=O)N3)cc1 (stereo not shown) [No 202, 2,5-difluoro-3-(4-methoxyphenyl)-5-phenyl-7H-thieno[2,3-b]pyridine-4,6-dione]",B (50%≦B<75%)
4,"O=C1Nc2scc(-c3ccc(O)cc3)c2C(=O)C1(F)c1ccccc1 (stereo not shown) [No 203, 5-fluoro-3-(4-hydroxyphenyl)-5-phenyl-7H-thieno[2,3-b]pyridine-4,6-dione]",C (C≧75%)
5,"O=C1Nc2scc(-c3cccc(O)c3)c2C(=O)C1(F)c1ccccc1 (stereo not shown) [No 204, 5-fluoro-3-(3-hydroxyphenyl)-5-phenyl-7H-thieno[2,3-b]pyridine-4,6-dione]",C (C≧75%)
6,"COc1cccc(-c2csc3c2C(=O)C(F)(c2ccccc2)C(=O)N3)c1 (stereo not shown) [No 205, 5-fluoro-3-(3-methoxyphenyl)-5-phenyl-7H-thieno[2,3-b]pyridine-4,6-dione]",B (50%≦B<75%)
7,"COc1cccc(-c2c(F)sc3c2C(=O)C(F)(c2ccccc2)C(=O)N3)c1 (stereo not shown) [No 206, 2,5-difluoro-3-(3-methoxyphenyl)-5-phenyl-7H-thieno[2,3-b]pyridine-4,6-dione]",C (C≧75%)
8,"COc1ccccc1C1(F)C(=O)Nc2scc(-c3ccccc3)c2C1=O (stereo not shown) [No 207, 5-fluoro-5-(2-methoxyphenyl)-3-phenyl-7H-thieno[2,3-b]pyridine-4,6-dione]",A (0%<A<50%)
9,"O=C1Nc2scc(-c3ccncc3)c2C(=O)C1(F)c1ccccc1 (stereo not shown) [No 208, 5-fluoro-5-phenyl-3-(4-pyridyl)-7H-thieno[2,3-b]pyridine-4,6-dione]",A (0%<A<50%)
10,"Cc1cccc(C2(F)C(=O)Nc3sc(Cl)c(-c4cccc(F)c4)c3C2=O)c1 (stereo not shown) [No 210, 2-chloro-5-fluoro-3-(3-fluorophenyl)-5-(m-tolyl)-7H-thieno[2,3-b]pyridine-4,6-dione]",C (C≧75%)
11,"N#Cc1cccc(C2(F)C(=O)Nc3sc(Cl)c(-c4cccc(F)c4)c3C2=O)c1 (stereo not shown) [No 211, 3-[2-chloro-5-fluoro-3-(3-fluorophenyl)-4,6-dioxo-7H-thieno[2,3-b]pyridin-5-yl]benzonitrile]",C (C≧75%)
12,"O=C1Nc2sc(Cl)c(-c3cccc(F)c3)c2C(=O)C1(F)c1cccnc1 (stereo not shown) [No 212, 2-chloro-5-fluoro-3-(3-fluorophenyl)-5-(3-pyridyl)-7H-thieno[2,3-b]pyridine-4,6-dione]",C (C≧75%)
13,"Cc1cccc(-c2c(Cl)sc3c2C(=O)C(F)(c2ccccc2)C(=O)N3)c1O (stereo not shown) [No 213, 2-chloro-5-fluoro-3-(2-hydroxy-3-methyl-phenyl)-5-phenyl-7H-thieno[2,3-b]pyridine-4,6-dione]",C (C≧75%)
14,"O=C1Nc2scc(-c3cccnc3)c2C(=O)C1(F)c1ccccc1 (stereo not shown) [No 214, 5-fluoro-5-phenyl-3-(3-pyridyl)-7H-thieno[2,3-b]pyridine-4,6-dione]",A (0%<A<50%)
15,"O=C1Nc2sc(Cl)c(-c3ccc(F)cc3O)c2C(=O)C1(F)c1cccc(F)c1 (stereo not shown) [No 215, 2-chloro-5-fluoro-3-(4-fluoro-2-hydroxy-phenyl)-5-(3-fluorophenyl)-7H-thieno[2,3-b]pyridine-4,6-dione]",C (C≧75%)
